Assay results: the supplement of paper PMC7840683
Structures can show the parent of a compound that is named as a salt.

Tested on: HepaRG
Assay: LDH release cytotoxicity, % of total lysis control; higher = more cytotoxic
Settings: 48 h
Method in brief: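 Single-lot HepaRG cells on collagen I-coated 96-well plates were exposed for 48 h in duplicate, in serum-free induction medium with 0.5% DMSO, to eight-point half-log series (test chemicals top 100 µM). Total lysis wells received 0.1% Triton X, and LDH leakage into 50 µL spent medium was read as resorufin fluorescence (CytoTox-ONE, Tecan Safire). Percent cytotoxicity was normalized to on-plate vehicle and total lysis controls and averaged over the duplicates.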

CC(=O)c1ccc2c(c1)C(NC(=O)c1ccc(F)cc1)C(O)C(C)(C)O2 (configuration not stated) [Carabersat]
Settings	LDH release cytotoxicity [%]
0.0308322 µM	-0.845
0.0975 µM	-1.53
0.308322 µM	-2.26
0.975 µM	-2.21
3.0832207 µM	-1.81
9.75 µM	-1.6
30.832207 µM	-1.02
97.5 µM	0.388

NC(=O)N1c2ccccc2C=Cc2ccccc21 [Carbamazepine]
Settings	LDH release cytotoxicity [%]
0.03162 µM	-0.712
0.1 µM	-0.993
0.3162278 µM	-1.39
1 µM	-0.89
3.16228 µM	-0.514
10 µM	-1.28
31.6228 µM	-1.043
100 µM	0.39

CNC(=O)Oc1cccc2ccccc12 [Carbaryl]
Settings	LDH release cytotoxicity [%]
0.03162 µM	-0.447
0.1 µM	-1.82
0.3162278 µM	-1.28
1 µM	-0.688
3.16228 µM	-0.561
10 µM	0.0525
31.6228 µM	0.246
100 µM	0.543

COC(=O)Nc1nc2ccccc2[nH]1 [Carbendazim]
Settings	LDH release cytotoxicity [%]
0.03162 µM	-1.09
0.1 µM	-0.973
0.3162278 µM	-1.51
1 µM	-1.78
3.16228 µM	-1.63
10 µM	7.25
31.6228 µM	7.37
100 µM	8.69

CNC(=O)Oc1cccc2c1OC(C)(C)C2 [Carbofuran]
Settings	LDH release cytotoxicity [%]
0.03162 µM	-0.0403
0.1 µM	-0.693
0.3162278 µM	-0.49
1 µM	-0.23
3.16228 µM	-0.812
10 µM	-1.07
31.6228 µM	-0.52
100 µM	0.343

CCCCN(CCCC)SN(C)C(=O)Oc1cccc2c1OC(C)(C)C2 [Carbosulfan]
Settings	LDH release cytotoxicity [%]
0.03162 µM	-3.56
0.1 µM	-0.722
0.3162278 µM	-0.938
1 µM	-0.712
3.16228 µM	0.429
10 µM	0.717
31.6228 µM	-0.247
100 µM	0.466

CC1=C(C(=O)Nc2ccccc2)SCCO1 [Carboxin]
Settings	LDH release cytotoxicity [%]
0.03162 µM	-0.0118
0.1 µM	-0.836
0.3162278 µM	-1.79
1 µM	-0.232
3.16228 µM	-1.1
10 µM	-0.0461
31.6228 µM	3.07
100 µM	8.14

CCOC(=O)C(Cl)Cc1cc(-n2nc(C)n(C(F)F)c2=O)c(F)cc1Cl (configuration not stated) [Carfentrazone-ethyl]
Settings	LDH release cytotoxicity [%]
0.03162 µM	-0.276
0.1 µM	-1.32
0.3162278 µM	-0.782
1 µM	-0.573
3.16228 µM	-0.524
10 µM	-0.0179
31.6228 µM	-0.285
100 µM	1.22

CC(C)c1ccc(C(=O)N=C(N)N)cc1S(C)(=O)=O [Cariporide mesylate]
Settings	LDH release cytotoxicity [%]
0.02356 µM	-0.0357
0.0745 µM	-1.69
0.23559 µM	-0.975
0.745 µM	-1.41
2.3559 µM	-0.944
7.45 µM	-0.838
23.559 µM	-1.46
74.5 µM	-0.256

Cc1c(C(=O)O)c(O)cc2c1C(=O)c1c(O)c(C3OC(CO)C(O)C(O)C3O)c(O)c(O)c1C2=O (configuration not stated) [Carminic acid]
Settings	LDH release cytotoxicity [%]
0.03162 µM	-11.2
0.1 µM	-11.08
0.3162278 µM	-10.7
1 µM	-11.1
3.16228 µM	-11.2
10 µM	-11
31.6228 µM	-9.8
100 µM	-10.4

Cc1ccc(-c2cc(C(F)(F)F)nn2-c2ccc(S(N)(=O)=O)cc2)cc1 [Celecoxib]
Settings	LDH release cytotoxicity [%]
0.03162 µM	-1.06
0.1 µM	-0.435
0.3162278 µM	-0.88
1 µM	-1.96
3.16228 µM	-1.21
10 µM	-0.583
31.6228 µM	3.13
100 µM	89.34

Nc1cc(Cl)cc(C(=O)O)c1Cl [Chloramben]
Settings	LDH release cytotoxicity [%]
0.03162 µM	0.283
0.1 µM	-1.57
0.3162278 µM	-0.351
1 µM	-0.882
3.16228 µM	-1.46
10 µM	-0.217
31.6228 µM	-0.618
100 µM	0.291

ClC1=C(Cl)C2(Cl)C3C(Cl)C(Cl)CC3C1(Cl)C2(Cl)Cl (configuration not stated) [Chlordane]
Settings	LDH release cytotoxicity [%]
0.03162 µM	-0.889
0.1 µM	-0.0312
0.3162278 µM	-1.4
1 µM	-2.2
3.16228 µM	-1.5
10 µM	-0.57
31.6228 µM	-0.758
100 µM	12

O=C(O)C1C(C(=O)O)C2(Cl)C(Cl)=C(Cl)C1(Cl)C2(Cl)Cl (configuration not stated) [Chlorendic acid]
Settings	LDH release cytotoxicity [%]
0.03162 µM	-0.458
0.1 µM	-0.878
0.3162278 µM	-1.72
1 µM	-1.15
3.16228 µM	-0.967
10 µM	-0.519
31.6228 µM	-0.436
100 µM	0.638

CCOP(=S)(OCC)OC(Cl)C(Cl)(Cl)Cl (configuration not stated) [Chlorethoxyfos]
Settings	LDH release cytotoxicity [%]
0.03162 µM	-1.98
0.1 µM	-1.72
0.3162278 µM	-0.757
1 µM	-2.38
3.16228 µM	-1.72
10 µM	-0.842
31.6228 µM	-1.18
100 µM	-1.1

N=C1C=NN(c2ccccc2)C(=O)C1Cl (configuration not stated) [Chloridazon]
Settings	LDH release cytotoxicity [%]
0.03162 µM	-1.49
0.1 µM	-1.35
0.3162278 µM	-0.939
1 µM	-1.3
3.16228 µM	-0.697
10 µM	-0.282
31.6228 µM	-0.579
100 µM	2.76

CCOC(=O)C(O)(c1ccc(Cl)cc1)c1ccc(Cl)cc1 [Chlorobenzilate]
Settings	LDH release cytotoxicity [%]
0.03162 µM	-0.592
0.1 µM	-1.28
0.3162278 µM	-1.55
1 µM	-2.17
3.16228 µM	-2.04
10 µM	-1.17
31.6228 µM	-0.669
100 µM	3.46

COc1cc(Cl)c(OC)cc1Cl [Chloroneb]
Settings	LDH release cytotoxicity [%]
0.03162 µM	-1.52
0.1 µM	-0.787
0.3162278 µM	-1.49
1 µM	-2.31
3.16228 µM	-1.57
10 µM	-0.979
31.6228 µM	-0.777
100 µM	0.671

N#Cc1c(Cl)c(Cl)c(Cl)c(C#N)c1Cl [Chlorothalonil]
Settings	LDH release cytotoxicity [%]
0.031623 µM	-0.0289
0.1 µM	-1.96
0.316228 µM	-3.42
1 µM	-2.72
3.16228 µM	-0.469
10 µM	4.78
31.6228 µM	20.5
100 µM	48.7
